Data as given in ChEMBL document CHEMBL4002623, “Synthesis and in vitro activity of dicationic indolyl diphenyl ethers as novel potent antibiotic agents against drug-resistant bacteria” (Bioorg Med Chem Lett, 2017).
Converted amounts (≈) assume the structure as drawn.

What was measured:
Staphylococcus aureus [1] = experiment: Antibacterial activity against methicillin-sensitive Staphylococcus aureus ATCC 29213 by agar dilution method; type: functional
Escherichia coli [2] = experiment: Antibacterial activity against extended-spectrum beta-lactamase-negative Escherichia coli 09-20 by agar dilution method; type: functional
Citrobacter freundii = experiment: Antibacterial activity against Citrobacter freundii ATCC 43864 by agar dilution method; type: functional
Enterococcus faecalis [3] = experiment: Antibacterial activity against vancomycin-resistant Enterococcus faecalis ATCC 51299 by agar dilution method; type: functional
Enterococcus faecalis [4] = experiment: Antibacterial activity against vancomycin-resistant Enterococcus faecalis 09-9 by agar dilution method; type: functional
Klebsiella aerogenes = experiment: Antibacterial activity against Enterobacter aerogenes 45102 by agar dilution method; type: functional
Escherichia coli [5] = experiment: Antibacterial activity against extended-spectrum beta-lactamase-positive Escherichia coli 09-1 by agar dilution method; type: functional
Staphylococcus aureus [6] = experiment: Antibacterial activity against methicillin-resistant Staphylococcus aureus ATCC 33591 by agar dilution method; type: functional
Staphylococcus aureus [7] = experiment: Antibacterial activity against methicillin-resistant Staphylococcus aureus 09-13 by agar dilution method; type: functional
Klebsiella pneumoniae [8] = experiment: Antibacterial activity against Klebsiella pneumoniae ATCC BAA-2146 expressing NDM-1 by agar dilution method; type: functional
Enterococcus faecalis [9] = experiment: Antibacterial activity against vancomycin-sensitive Enterococcus faecalis ATCC 29212 by agar dilution method; type: functional
Enterococcus faecium [10] = experiment: Antibacterial activity against vancomycin-sensitive Enterococcus faecium 09-10 by agar dilution method; type: functional
Salmonella typhi = experiment: Antibacterial activity against Salmonella typhi H901 by agar dilution method; type: functional, Salmonella enterica subsp. enterica serovar Typhi; details: Salmonella enterica
Proteus vulgaris = experiment: Antibacterial activity against Proteus vulgaris ATCC 29905 by agar dilution method; type: functional
[11] = tested on: Staphylococcus epidermidis; experiment: Antibacterial activity against methicillin-sensitive Staphylococcus epidermidis 09-9 by agar dilution method; type: functional
Enterobacter cloacae = experiment: Antibacterial activity against Enterobacter cloacae 45301 by agar dilution method; type: functional
Pseudomonas aeruginosa [12] = experiment: Antibacterial activity against Pseudomonas aeruginosa PAO1 by agar dilution method; type: functional
Enterococcus faecalis [13] = experiment: Antibacterial activity against vancomycin-sensitive Enterococcus faecalis 09-8 by agar dilution method; type: functional
Klebsiella pneumoniae [14] = experiment: Antibacterial activity against extended-spectrum beta-lactamase-negative Klebsiella pneumoniae 09-8 by agar dilution method; type: functional
Klebsiella pneumoniae [15] = experiment: Antibacterial activity against extended-spectrum beta-lactamase-positive Klebsiella pneumoniae ATCC 700603 by agar dilution method; type: functional
Escherichia coli [16] = experiment: Antibacterial activity against extended-spectrum beta-lactamase-negative Escherichia coli ATCC 25922 by agar dilution method; type: functional
Enterococcus faecium [17] = experiment: Antibacterial activity against vancomycin-resistant Enterococcus faecium 05-8 by agar dilution method; type: functional
Proteus mirabilis = experiment: Antibacterial activity against Proteus mirabilis 09-1 by agar dilution method; type: functional
Staphylococcus aureus [18] = experiment: Antibacterial activity against methicillin-sensitive Staphylococcus aureus 15 by agar dilution method; type: functional
[19] = tested on: Staphylococcus epidermidis; experiment: Antibacterial activity against methicillin-sensitive Staphylococcus epidermidis ATCC 12228 by agar dilution method; type: functional
Pseudomonas aeruginosa [20] = experiment: Antibacterial activity against Pseudomonas aeruginosa ATCC 27853 by agar dilution method; type: functional
Klebsiella pneumoniae [21] = experiment: Antibacterial activity against extended-spectrum beta-lactamase-positive Klebsiella pneumoniae 09-25 by agar dilution method; type: functional
Pseudomonas aeruginosa [22] = experiment: Antibacterial activity against Pseudomonas aeruginosa 09-14 by agar dilution method; type: functional
Escherichia coli [23] = experiment: Antibacterial activity against extended-spectrum beta-lactamase-negative Escherichia coli 1515 by agar dilution method; type: functional
[24] = tested on: Acinetobacter calcoaceticus; experiment: Antibacterial activity against Acinetobacter calcoaceticus ATCC 19606 by agar dilution method; type: functional
Enterococcus faecium [25] = experiment: Antibacterial activity against vancomycin-resistant Enterococcus faecium ATCC 700221 by agar dilution method; type: functional
Staphylococcus aureus [26] = experiment: Antibacterial activity against methicillin-sensitive Staphylococcus aureus 09-6 by agar dilution method; type: functional
Providencia rettgeri = experiment: Antibacterial activity against Providencia rettgeri ATCC 31052 by agar dilution method; type: functional
[27] = tested on: Staphylococcus epidermidis; experiment: Antibacterial activity against methicillin-resistant Staphylococcus epidermidis 09-3 by agar dilution method; type: functional
[28] = Cytotoxicity against HEK293T cells after 48 hrs by MTS assay; type: cell-based, HEK-293T; details: human
Morganella morganii = experiment: Antibacterial activity against Morganella morganii ATCC 25830 by agar dilution method; type: functional
Klebsiella pneumoniae [29] = experiment: Antibacterial activity against extended-spectrum beta-lactamase-negative Klebsiella pneumoniae 7 by agar dilution method; type: functional
Serratia marcescens = experiment: Antibacterial activity against Serratia marcescens 41002 by agar dilution method; type: functional

With `CCCNC(=N)c1ccc2cc(-c3ccc(Oc4ccc(-c5cc6ccc(C(=N)NCCC)cc6[nH]5)cc4)cc3)[nH]c2c1` the MIC (Staphylococcus aureus [1]) was 16 µg/mL (≈ 28.1 µM), the MIC (Escherichia coli [2]) was 128 µg/mL (≈ 225 µM) and the MIC (Citrobacter freundii) was > 128 µg/mL. For the same compound, the MIC (Enterococcus faecalis [3]) was 16 µg/mL (≈ 28.1 µM), the MIC (Enterococcus faecalis [4]) was 16 µg/mL (≈ 28.1 µM) and the MIC (Klebsiella aerogenes) was > 128 µg/mL. For the same compound, the MIC (Escherichia coli [5]) was > 128 µg/mL, the MIC (Staphylococcus aureus [6]) was 16 µg/mL (≈ 28.1 µM) and the MIC (Staphylococcus aureus [7]) was 16 µg/mL (≈ 28.1 µM). For the same compound, the MIC (Klebsiella pneumoniae [8]) was > 128 µg/mL, the MIC (Enterococcus faecalis [9]) was 16 µg/mL (≈ 28.1 µM) and the MIC (Enterococcus faecium [10]) was 16 µg/mL (≈ 28.1 µM). The MIC (Salmonella typhi) was 128 µg/mL (≈ 225 µM), the MIC (Proteus vulgaris) was > 128 µg/mL and the MIC [11] was 8 µg/mL (≈ 14.1 µM). The MIC (Enterobacter cloacae) was > 128 µg/mL, the MIC (Pseudomonas aeruginosa [12]) was > 128 µg/mL and the MIC (Enterococcus faecalis [13]) was 16 µg/mL (≈ 28.1 µM). For the same compound, the MIC (Klebsiella pneumoniae [14]) was 128 µg/mL (≈ 225 µM), the MIC (Klebsiella pneumoniae [15]) was > 128 µg/mL and the MIC (Escherichia coli [16]) was > 128 µg/mL. The MIC (Enterococcus faecium [17]) was 16 µg/mL (≈ 28.1 µM), the MIC (Proteus mirabilis) was > 128 µg/mL and the MIC (Staphylococcus aureus [18]) was 8 µg/mL (≈ 14.1 µM). The MIC [19] was 8 µg/mL (≈ 14.1 µM), the MIC (Pseudomonas aeruginosa [20]) was > 128 µg/mL and the MIC (Klebsiella pneumoniae [21]) was > 128 µg/mL. The MIC (Pseudomonas aeruginosa [22]) was > 128 µg/mL, the MIC (Escherichia coli [23]) was > 128 µg/mL and the MIC [24] was > 128 µg/mL. The MIC (Enterococcus faecium [25]) was 2 to 16 µg/mL (≈ 3.52 to 28.1 µM), the MIC (Staphylococcus aureus [26]) was 16 µg/mL (≈ 28.1 µM) and the MIC (Providencia rettgeri) was > 128 µg/mL. The MIC [27] was 2 µg/mL (≈ 3.52 µM), the CC50 at 48 h [28] was 26.2 µg/mL (≈ 46.1 µM) and the MIC (Morganella morganii) was 128 µg/mL (≈ 225 µM). The MIC (Klebsiella pneumoniae [29]) was > 128 µg/mL and the MIC (Serratia marcescens) was > 128 µg/mL.
In the case of `N=C(NC1CCC1)c1ccc2cc(-c3ccc(Oc4ccc(-c5cc6ccc(C(=N)NC7CCC7)cc6[nH]5)cc4)cc3)[nH]c2c1`, the MIC (Staphylococcus aureus [1]) is reported as 64 µg/mL (≈ 108 µM), the MIC (Escherichia coli [2]) is reported as > 128 µg/mL and the MIC (Citrobacter freundii) is reported as > 128 µg/mL. For the same compound, the MIC (Enterococcus faecalis [3]) was 64 µg/mL (≈ 108 µM), the MIC (Enterococcus faecalis [4]) was 64 µg/mL (≈ 108 µM) and the MIC (Klebsiella aerogenes) was > 128 µg/mL. For the same compound, the MIC (Escherichia coli [5]) was > 128 µg/mL, the MIC (Staphylococcus aureus [6]) was 64 µg/mL (≈ 108 µM) and the MIC (Staphylococcus aureus [7]) was 64 µg/mL (≈ 108 µM). For the same compound, the MIC (Klebsiella pneumoniae [8]) was > 128 µg/mL, the MIC (Enterococcus faecalis [9]) was 64 µg/mL (≈ 108 µM) and the MIC (Enterococcus faecium [10]) was 64 µg/mL (≈ 108 µM). For the same compound, the MIC (Salmonella typhi) was > 128 µg/mL, the MIC (Proteus vulgaris) was > 128 µg/mL and the MIC [11] was 8 µg/mL (≈ 13.5 µM). For the same compound, the MIC (Enterobacter cloacae) was > 128 µg/mL, the MIC (Pseudomonas aeruginosa [12]) was > 128 µg/mL and the MIC (Enterococcus faecalis [13]) was 64 µg/mL (≈ 108 µM). For the same compound, the MIC (Klebsiella pneumoniae [14]) was > 128 µg/mL, the MIC (Klebsiella pneumoniae [15]) was > 128 µg/mL and the MIC (Escherichia coli [16]) was > 128 µg/mL. The MIC (Enterococcus faecium [17]) was > 128 µg/mL, the MIC (Proteus mirabilis) was > 128 µg/mL and the MIC (Staphylococcus aureus [18]) was 64 µg/mL (≈ 108 µM). For the same compound, the MIC [19] was 8 µg/mL (≈ 13.5 µM), the MIC (Pseudomonas aeruginosa [20]) was > 128 µg/mL and the MIC (Klebsiella pneumoniae [21]) was > 128 µg/mL. For the same compound, the MIC (Pseudomonas aeruginosa [22]) was > 128 µg/mL, the MIC (Escherichia coli [23]) was > 128 µg/mL and the MIC [24] was > 128 µg/mL. For the same compound, the MIC (Enterococcus faecium [25]) was 32 µg/mL (≈ 54 µM), the MIC (Staphylococcus aureus [26]) was 64 µg/mL (≈ 108 µM) and the MIC (Providencia rettgeri) was > 128 µg/mL. The MIC [27] was 16 µg/mL (≈ 27 µM), the CC50 at 48 h [28] was 32.6 µg/mL (≈ 55 µM) and the MIC (Morganella morganii) was > 128 µg/mL. For the same compound, the MIC (Klebsiella pneumoniae [29]) was > 128 µg/mL and the MIC (Serratia marcescens) was > 128 µg/mL.
In the case of `N=C(NC1CCCC1)c1ccc2cc(-c3ccc(Oc4ccc(-c5cc6ccc(C(=N)NC7CCCC7)cc6[nH]5)cc4)cc3)[nH]c2c1`, the MIC (Staphylococcus aureus [1]) is reported as 128 µg/mL (≈ 206 µM), the MIC (Escherichia coli [2]) is reported as > 128 µg/mL and the MIC (Citrobacter freundii) is reported as > 128 µg/mL. For the same compound, the MIC (Enterococcus faecalis [3]) was 128 µg/mL (≈ 206 µM), the MIC (Enterococcus faecalis [4]) was 128 µg/mL (≈ 206 µM) and the MIC (Klebsiella aerogenes) was > 128 µg/mL. The MIC (Escherichia coli [5]) was > 128 µg/mL, the MIC (Staphylococcus aureus [6]) was 64 µg/mL (≈ 103 µM) and the MIC (Staphylococcus aureus [7]) was 64 µg/mL (≈ 103 µM). For the same compound, the MIC (Klebsiella pneumoniae [8]) was > 128 µg/mL, the MIC (Enterococcus faecalis [9]) was 128 µg/mL (≈ 206 µM) and the MIC (Enterococcus faecium [10]) was ≥ 128 µg/mL. For the same compound, the MIC (Salmonella typhi) was > 128 µg/mL, the MIC (Proteus vulgaris) was > 128 µg/mL and the MIC [11] was 8 µg/mL (≈ 12.9 µM). The MIC (Enterobacter cloacae) was > 128 µg/mL, the MIC (Pseudomonas aeruginosa [12]) was > 128 µg/mL and the MIC (Enterococcus faecalis [13]) was 128 µg/mL (≈ 206 µM). The MIC (Klebsiella pneumoniae [14]) was > 128 µg/mL, the MIC (Klebsiella pneumoniae [15]) was > 128 µg/mL and the MIC (Escherichia coli [16]) was > 128 µg/mL. For the same compound, the MIC (Enterococcus faecium [17]) was > 128 µg/mL, the MIC (Proteus mirabilis) was > 128 µg/mL and the MIC (Staphylococcus aureus [18]) was 128 µg/mL (≈ 206 µM). The MIC [19] was 8 µg/mL (≈ 12.9 µM), the MIC (Pseudomonas aeruginosa [20]) was > 128 µg/mL and the MIC (Klebsiella pneumoniae [21]) was > 128 µg/mL. The MIC (Pseudomonas aeruginosa [22]) was > 128 µg/mL, the MIC (Escherichia coli [23]) was > 128 µg/mL and the MIC [24] was > 128 µg/mL. For the same compound, the MIC (Enterococcus faecium [25]) was ≥ 128 µg/mL, the MIC (Staphylococcus aureus [26]) was 128 µg/mL (≈ 206 µM) and the MIC (Providencia rettgeri) was > 128 µg/mL. For the same compound, the MIC [27] was 16 µg/mL (≈ 25.8 µM), the CC50 at 48 h [28] was 28.9 µg/mL (≈ 46.6 µM) and the MIC (Morganella morganii) was > 128 µg/mL. The MIC (Klebsiella pneumoniae [29]) was > 128 µg/mL and the MIC (Serratia marcescens) was > 128 µg/mL.
